Laboratory results published in patent publication US10463656B2, “Methods and compositions for prevention of feedlot bovine respiratory disease” (Iowa State University Research Foundation, Inc., priority 2017, dated 2019).
Entries after “also recorded” stand apart in the source; their conditions may differ.

Assays:
[1] = biological target: T1, Bovine H1 histamine receptor (Bos taurus, UniProt P30546); experiment: Histamine-mediated intracellular calcium accumulation in BHK cells transiently expressing bovine H1 histamine receptor; assay type: cell-based; conditions: 10 nM histamine; transfected BHK cells
T1 construct: expressed in transfected cells; host or cells: BHK cells, transient transfection with lipofectamine, pcDNA3.3
Protocol: Bovine H1 histamine receptor was cloned into pcDNA3.3 expression vector and transiently expressed in BHK tissue culture cells using lipofectamine as per Carlson et al. Ten nM histamine was then added to the cells in the presence of various concentrations of rupatadine, tripelennamine, lexipafant, or WEB2086. Intracellular calcium accumulation was monitored in the transfected cells using a commercially available kit (Abcam, Cambridge, Mass.). IC50 values were then determined by identifying the concentration of the antagonist that reduced the maximal PAF-mediated intracellular calcium accumulation by 50%. […] Therefore, as showing in Examples 11 and 12, rupatadine is the only antihistamine that can also block the function of PAFR.

Bovine PAFR = biological target: T2, Bovine PAFR (Bos taurus, UniProt Q9TTY5); experiment: PAF-mediated intracellular calcium accumulation in BHK cells transiently expressing bovine PAFR; assay type: cell-based; conditions: 10 nM PAF, transfected BHK cells; for block of bovine PAFR function, PAF-mediated intracellular calcium accumulation (FIG. 11): antagonist 1-100 nM; for block of bovine PAFR function by antihistamines, PAF-mediated intracellular calcium accumulation (FIG. 12): antihistamine 1-100 nM
T2 construct: expressed in transfected cells; host or cells: BHK cells, transient transfection with lipofectamine, pcDNA3.3-PAFR
Protocol: Bovine PAFR was cloned into pcDNA3.3 expression vector and transiently expressed in BHK tissue culture cells using lipofectamine as per Carlson et al., J Biol Chem, 271:23146053 (1996), herein incorporated by reference in its entirety. Ten nM PAF was then added to the cells in the presence of various concentrations of various antagonists: rupatadine, lexipafant (as in Kingsnorth, et al., BJS, 82:1414-20 (1995), herein incorporated in its entirety), and WEB2086 a PAF antagonist which has not been commercialized and/or used in humans to date (as in Casals-Stenzel et al., J of Pharmacolo Experimental Therapeutics, 241:974-81 (1987), herein incorporated in its entirety), as well as tripelennamine, a bovine-approved antihistamine at concentrations ranging between 1-100 nM. Intracellular calcium accumulation was monitored in the transfected cells using a commercially available kit (Abcam, Cambridge). IC50 values were then determined by identifying the concentration of the antagonist that reduced the maximal PAF-mediated intracellular calcium accumulation by 50%.
Various antihistamines were also tested. […] Intracellular calcium accumulation was monitored in the transfected cells using a commercially available kit (Abcam, Cambridge). IC50 values were then determined by identifying the concentration of the antagonist that reduced the maximal PAF-mediated intracellular calcium accumulation by 50%.

PAFR [2] = biological target: T3, PAFR (Bos taurus, UniProt Q9TTY5); experiment: Stress hormone- and commensal oral bacteria-mediated second messenger accumulation in calf blood cells; assay type: cell-based, cattle; conditions: 500 nM inhibitor, blood of animals with increased PAFR expression, cortisol 5 ng/mL, norepinephrine 100 pg/mL, 10^6 CFUs/mL bacteria, six hours 37°C
T3 construct: endogenous in cells; host or cells: whole blood cells of cattle (ex vivo)
From the text: A PAFR inhibitor blocks the stress hormone- and commensal oral bacteria-mediated second messenger accumulation in calf blood cells that have an increase in expression of PAFR. Studies presented in Example 1 and FIG. 1 were repeated with the inclusion of the compositions comprising the anti-inflammatory drug rupatadine according to the invention. Blood was drawn from 10 animals that have an increase in PAFR expression (those in which an RT-PCR amplicon was visible after 10-15 cycles) and 10 animals with “normal” or no PAFR expression (those in which an RT-PCR amplicon was visible after 30-45 cycles).
Approximately 5 mL of whole blood was collected from the jugular or caudal vein of non-transported juvenile and adult cattle. Blood was placed in EDTA tubes, aliquoted, and cortisol (5 ng/mL) and norepinephrine (100 pg/mL) were added to some of the blood. The next day, blood samples were incubated with 0 or 10^6 CFUs/mL of commensal oral bacteria, 0 or 500 nM of the inhibitor, and a second messenger reagent for six hours at 37° C. with gentle rolling. After the six-hour incubation period, blood samples were analyzed for the production of second messengers. Data was standardized based on second messenger production in the presence of vehicle. […] Fifty ng of total RNA was then subjected to semi-quantitative RT-PCR to confirm the PAFR expression status of each animal.

[3] = Pharmacotherapeutic study, blood levels after oral administration to feedlot calves; assay type: in vivo; conditions: daily oral doses of 30 mg/animal for 5 days; six calves
Protocol: A pharmacotherapeutic study was completed to confirm the PAFRi survives the rumen and reaches therapeutic blood and lung concentrations following oral administration to feedlot calves. Six calves were purchased and given daily oral doses of 30 mg/animal of the drug rupatadine for 5 days. Blood was drawn five times on day one and twice per day thereafter to measure the blood levels of rupatadine.

BRD [4] = experiment: BRD prevention at the feedlot, drug in the feed; assay type: in vivo, calves
Protocol: An initial study was performed to confirm BRD prevention at the feedlot using an anti-inflammatory composition comprising rupatadine, the oral inhibitor of PAFR. A total of 18 calves were evaluated with the treatment arm receiving a dosage rate of 0.3 mg/kg. Calves were provided the drug in the feed during the first three weeks after entering the feedlot which is within the high risk 6-week period following transfer of the animal. Calves were purchased from a location in Joplin, Mo. having an overall incidence of BRD at >40% which is higher than the standard incidence of about 10% in cattle.
A further study was performed to confirm BRD prevention at the feedlot using the anti-inflammatory composition comprising rupatadine. The same methodology of Example 5 was employed with the modification of the number of calves and the dosage rate. The dosage rate was increased to 0.6 mg/kg. The number of calves were increased to 24 in total. The results are consistent to the first trial, including: 41.7% of treated calves (n=5 of 12) developed BRD whereas 100% of untreated calves (n=12 of 12) developed BRD.
A further study was performed to confirm BRD prevention at the feedlot using the anti-inflammatory composition comprising rupatadine as outlined in Example 5 with the modification of the number of calves (20 total) and the dosage rate. The dosage rate increased to 1.2 mg/kg.

PAFR [5] = experiment: PAFR level in blood of treated calves by qRT-PCR (Example 14); assay type: in vivo; conditions: weekly depot injection versus control and other rupatadine treatments
Protocol: Blood was extracted from all 25 calves was extracted weekly and the level of PAFR was assayed using qRT-PCR and the theoretical copies of transcript/200 ng of total RNA. […] However, it dropped the most in the weekly depot injection calves during the last three weeks of observations.

BRD [6] = experiment: BRD prevention in high-risk calves, treatment methods of rupatadine (Example 14); assay type: in vivo
Protocol: In order to test various treatment methods of rupatadine, 25 high-risk calves were transported to a new farm. Seven calves were used as controls, six were given rupatadine as a single oral dose of 1 mg/kg, six were given rupatadine as a single subcutaneous injection of 7 mg/kg, six calves were given weekly subcutaneous injections of 7 mg/kg rupatadine. The animals were observed over the next five weeks twice daily for BRD. Any animal who required antibiotics for treating the clinical signs of BRD was classified as having BRD.
All the calves (100%, n=6 of 6) eventually developed BRD between days three and 31. […] The calf that did develop BRD did so on day 31.

BRD [7] = experiment: BRD prevention in high-risk calves, weekly injections (Example 13); assay type: in vivo; conditions: after five weeks of weekly subcutaneous 7 mg/kg; BRD(+) calves usually >25%
Protocol: Twenty-five high-risk BRD calves were transported to a new barn and five each were assigned to different treatment groups: no treatment, weekly subcutaneous injections of 7 mg/kg of rupatadine, weekly injections of 1 mg/kg tripelennamine, weekly injections of 10 mg/kg WEB2086, and weekly injections of 1 mg/kg tripelennamine and 10 mg/kg WEB2086. The animals were observed over the next five weeks twice daily for BRD. Any animal who required antibiotics for treating the clinical signs of BRD was classified as having BRD. […] Four of the five (80%, n=4 of 5) animals receiving tripelennamine only developed BRD.
After the five weeks, the rupatadine treated animals were euthanized and the lungs removed and necropsied. Three veterinarians then assessed the lungs for signs of disease, such as abscessation or consolidation. […] Lung pathology in BRD(+) calves is usually >25%, and of the rupatadine treated animals, there was only about 5-10% disease identified by the veterinarians.

T2 sequence (Q9TTY5 whole entry): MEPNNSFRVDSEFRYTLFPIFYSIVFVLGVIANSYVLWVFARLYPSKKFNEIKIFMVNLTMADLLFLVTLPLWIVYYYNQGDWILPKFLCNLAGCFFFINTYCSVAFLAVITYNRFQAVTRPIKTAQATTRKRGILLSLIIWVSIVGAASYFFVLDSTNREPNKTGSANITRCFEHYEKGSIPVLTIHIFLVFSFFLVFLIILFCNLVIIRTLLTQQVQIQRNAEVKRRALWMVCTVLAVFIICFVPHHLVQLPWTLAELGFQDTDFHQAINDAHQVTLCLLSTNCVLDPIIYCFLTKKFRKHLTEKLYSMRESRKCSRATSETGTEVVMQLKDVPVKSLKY
T1 sequence (P30546 whole entry): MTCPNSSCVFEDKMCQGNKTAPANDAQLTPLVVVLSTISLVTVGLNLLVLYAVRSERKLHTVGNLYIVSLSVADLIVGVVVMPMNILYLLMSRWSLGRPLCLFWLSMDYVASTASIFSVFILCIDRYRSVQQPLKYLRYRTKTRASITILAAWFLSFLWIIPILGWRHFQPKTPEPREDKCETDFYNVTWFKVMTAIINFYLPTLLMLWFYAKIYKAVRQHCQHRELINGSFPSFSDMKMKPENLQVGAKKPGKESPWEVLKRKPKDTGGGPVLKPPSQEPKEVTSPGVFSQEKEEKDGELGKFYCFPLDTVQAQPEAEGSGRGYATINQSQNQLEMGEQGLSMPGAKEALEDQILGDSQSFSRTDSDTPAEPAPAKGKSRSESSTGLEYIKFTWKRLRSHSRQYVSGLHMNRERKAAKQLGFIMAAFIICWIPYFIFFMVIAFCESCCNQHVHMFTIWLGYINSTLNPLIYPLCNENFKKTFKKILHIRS
T3 sequence (Q9TTY5 whole entry): as the sequence (Q9TTY5 whole entry) above

| SMILES | block of the function of the H1 histamine receptor, intracellular calcium accumulation (FIG. 13) [1] | block of bovine PAFR function, PAF-mediated intracellular calcium accumulation (FIG. 11) (Bovine PAFR) | block of bovine PAFR function by antihistamines, PAF-mediated intracellular calcium accumulation (FIG. 12) (Bovine PAFR) | also measured |
| --- | --- | --- | --- | --- |
| Cc1nnc2n1-c1sc(CCC(=O)N3CCOCC3)cc1C(c1ccccc1Cl)=NC2 [WEB2086] | fail to black | blocked | – | – |
| CN(C)CCOC(c1ccccc1)c1ccccc1 [diphenhydramine] | – | – | do not block | – |
| OCCOCCN1CCN(C(c2ccccc2)c2ccc(Cl)cc2)CC1 (stereo not shown) [hydroxyazine] | – | – | do not block | – |
| CCOC(=O)[C@H](CC(C)C)N(C)S(=O)(=O)c1ccc(Cn2c(C)nc3cnccc32)cc1 [lexipafant] | fail to black | blocked | – | – |
| CC(CN1c2ccccc2Sc2ccccc21)N(C)C (stereo not shown) [promethazine] | – | – | do not block | – |
| COc1ccc(CN(CCN(C)C)c2ccccn2)cc1 [pyrilamine] | – | – | do not block | – |
| Cc1cncc(CN2CCC(=C3c4ccc(Cl)cc4CCc4cccnc43)CC2)c1 [rupatadine, 8-chloro-11-[1-[(5-methyl-3-pyridyl)methyl]-4-piperidyliden]-6,11-dihydro-5H-benzo[5,6]cyclohepta[1,2-b]pyridine] | able to block | blocked | able to block PAFR function; also recorded: blocks | stress hormone- and commensal oral bacteria-mediated second messenger accumulation (PAFR [2]): blocks; stress hormone- and commensal oral bacteria-mediated second messenger accumulation (PAFR [2]; listed as PAFRi): indistinct from normal or non-expressing samples; blood levels of rupatadine (FIG. 9) [3]: reaches therapeutic concentrations more rapidly than in humans; treated calves that developed BRD (BRD [4]; 0.3 mg/kg in the feed, first three weeks after entering the feedlot, 8 treated calves, within 5 weeks): 50%; treated calves that developed BRD (BRD [4]; 0.6 mg/kg in the feed, n=5 of 12): 41.7%; treated calves that developed BRD (BRD [4]; 1.2 mg/kg in the feed, n=3 of 10): 33.3%; PAFR expression over a five-week period (PAFR [5]): greatest decrease in PAFR expression; high risk animals that did not develop BRD (BRD [6]; weekly long-acting injections of 7 mg/kg): five out of six; animals that developed BRD (BRD [6]; weekly subcutaneous injections of 7 mg/kg, five-week observation, n=6): 16.7%; day on which the calf developed BRD (BRD [6]; weekly subcutaneous injections of 7 mg/kg, the one calf that developed BRD): 31 days; lung disease identified by the veterinarians at necropsy (BRD [7]): 5-10% |
| CN(C)CCN(Cc1ccccc1)c1ccccn1 [tripelennamine] | able to block | not blocked | do not block | – |
